Literature values in US20220202844A1, “DRUG DELIVERY COMPOSITION AND A METHOD OF ADMINISTERING THE DRUG” (priority 2020, published 2022).
Values after ≈ are worked out from the molar mass of the structure shown.

Settings: background statement

Question: With `NC(=O)c1ccc[n+]([C@@H]2O[C@H](COP(=O)([O-])OP(=O)(O)OC[C@H]3O[C@@H](n4cnc5c(N)ncnc54)[C@H](O)[C@@H]3O)[C@@H](O)[C@H]2O)c1` [NAD+, nicotinamide adenine dinucleotide] as the compound, how does the aqueous solubility read?
Answer: 50 mg/mL (≈ 75.4 mM)
